# Data from US8957049B2, “Inhibitors of fatty acid amide hydrolase” (Infinity Pharmaceuticals, Inc., priority 2008, dated 2015).
# Target: T1, human FAAH (Homo sapiens, UniProt O00519)
# T1 construct: host or cells: COS-7 cells, transient transfection (FuGENE 6); 13,000 g membrane fraction solubilised in 1% Triton X-100
# T1 sequence (O00519 1-579): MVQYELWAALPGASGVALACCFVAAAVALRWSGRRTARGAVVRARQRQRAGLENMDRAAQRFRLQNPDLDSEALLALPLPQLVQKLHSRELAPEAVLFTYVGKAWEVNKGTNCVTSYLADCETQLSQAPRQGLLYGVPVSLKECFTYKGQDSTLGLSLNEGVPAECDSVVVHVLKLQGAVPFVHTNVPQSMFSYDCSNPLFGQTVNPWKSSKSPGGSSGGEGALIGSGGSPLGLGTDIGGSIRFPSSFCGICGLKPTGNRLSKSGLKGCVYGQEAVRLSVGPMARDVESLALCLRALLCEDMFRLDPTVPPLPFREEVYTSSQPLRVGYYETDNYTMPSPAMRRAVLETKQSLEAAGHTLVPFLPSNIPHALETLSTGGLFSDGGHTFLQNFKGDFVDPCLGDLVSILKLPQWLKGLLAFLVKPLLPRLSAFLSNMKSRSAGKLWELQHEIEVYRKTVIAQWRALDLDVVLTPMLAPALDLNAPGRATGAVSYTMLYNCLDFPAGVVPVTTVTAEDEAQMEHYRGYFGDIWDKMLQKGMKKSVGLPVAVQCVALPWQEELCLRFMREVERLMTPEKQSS
# Assay: Human FAAH biochemical inhibition assay (AMC arachidonoyl amide fluorescence)
# Conditions: class given in each Example, read-out: Activity (Ki, inhibition of human FAAH)
# Description: Exemplary compounds are set forth in the Examples provided below. Compounds were assayed as inhibitors of human FAAH using the method described in detail in Example 286.
# The following assays may be used to determine the inhibition of FAAH by the compounds of the present invention: (1) a fluorescence-based assay for fatty acid amide hydrolase compatible with high-throughput screening as described in Manjunath et al., Analytical Biochemistry (2005) 343:143-151; and (2) a high-throughput screening for the discovery of inhibitors of fatty acid amide hydrolase using a microsome-based fluorescent assay. Wang et al., Biomolecular Screening (2006) 1-9.
# COS-7 cells were split the day before, 1:5 into 150 mm×25 mm cell culture dishes (Corning Inc., Cat. No. 430599). Transient transfection took place at 30-40% confluency according to FuGENE 6 Transfection Reagent (Roche, Cat. No. 11814 443 001).
# The FuGENE transfection 6 reagent (45 uL) was added to 1410 μL of media (DMEM, serum free without pen/strep) in a 15 mL conical tube and incubated at room temp for 5 minutes, followed by the addition of FAAH plasmid DNA (15 μg) (OriGene Cat. No. TC119221, Genbank Accession No. NM_001441.1, 0.67 ug/uL) and a further incubation of 15 minutes at room temperature. The resulting solution was added into one dish of 30-40% confluent COS-7 cells in a drop-wise manner. The COS-7 cell dish was subsequently incubated for 48 hours. The cells are then harvested.
# Media was aspirated from the dishes and the cells rinsed with 10 mL PBS. The PBS was removed and 3 mL of PBS added to the dish. The dish was scraped to resuspend the cells, and the subsequent cell suspension collected into a 15 mL conical tube. The cells were pelleted by centrifugation at 1200 rpm for 5 minutes in a bench top centrifuge. PBS was removed and the cell pellet snap frozen in liquid nitrogen and stored at −80° C.
# COS-7 Cells—FAAH Purification: • (1) Fractionation: Frozen cell pellets from transient transfections were thawed on ice and resuspended in 12.5 mM Hepes pH 8.0, 100 mM NaCl, 1 mM EDTA (10 mL/0.2 g cell pellet). The pellets were dounce homogenized and then sonicated to produce cell extract. The cell extract was subsequently centrifuged at 1000 g to remove cellular debris. The pellet was discarded and the supernatant centrifuged at 13,000 g for 20 minutes. The pellet contained membrane bound FAAH. The supernatant was discarded and the pellet resolubilized. • (2) Re-solubilization: The fraction of interest, (13,000 g, membrane fraction) was re-suspended in 2.3 mL re-suspension buffer (20 mM Hepes pH 7.8, 10% v/v Glycerol, 1 mM EDTA, 1% Triton X-100) and the sample incubated on ice for 1 hour and then centrifuged to remove any particulate matter. The supernatant containing solubilized human FAAH was aliquoted and snap frozen in liquid nitrogen and stored at −80° C. until use. • (3) Characterization: Protein Concentration determined by Bradford assay. • SDS gel and Western blot to confirm presence of FAAH • FAAH activity assay • Km determination—96-well assay • Linear dependence—96-well assay • Standard compound Ki determination—384-well assay
# Rat FAAH biochemical assays were carried out in a 96 well flat bottom black non-treated polystyrene plates (Corning Costar Catalogue #3915). FAAH reaction buffer: 50 mM Hepes (pH 7.5), 1 mM EDTA, 0.2% Triton X-100. FAAH substrate—AMC Arachidonoyl Amide (Cayman Chemicals Company, Catalog #10005098). The reaction was read in an Envision microtiter plate reader [Excitation filter 355 nm (40 nm bandpass); Emmision filter 460 nm (25 nm bandpass)]. The raw fluorescence was plotted on the y axis and the inhibitor concentration on the x axis to give a dose response inhibition curve. The data was fitted to a single site competitive inhibition equation, fixing the Km for the rat and human enzyme to 12 μM and 9 μM respectively. […]
row,SMILES,Ki [nM]
1,COC(=O)C1CC(Cc2ccccc2)ON1Cc1ccc(B(O)O)c(F)c1 (centres unmarked) [Compound 148],10 to 100
2,OB(O)c1cccc2cccc(COc3cccc(F)c3)c12 [Compound 151],> 1000
3,OB(O)c1ccc(C2CC(c3ccccc3)=NO2)cc1 (centres unmarked) [Compound 152],≤ 10
4,OB(O)c1ccc(-c2cc(-c3ccccc3)no2)cc1 [Compound 156],≤ 10
5,OB(O)c1ccc(C2=NOC(c3ccccc3)C2)cc1 (centres unmarked) [Compound 159],≤ 10
6,OB(O)c1ccc(-c2cc(-c3ccccc3)on2)cc1 [Compound 160],≤ 10
7,CCCCCC1CC(c2ccc(B(O)O)cc2)=NO1 (centres unmarked) [Compound 161],≤ 10
8,CCCCCC1(C)CC(c2ccc(B(O)O)cc2)=NO1 (centres unmarked) [Compound 162],≤ 10
9,CCCC1(c2ccccc2)CC(c2ccc(B(O)O)cc2)=NO1 (centres unmarked) [Compound 163],100 to 1000
10,CCCCCC1(CCCCC)CC(c2ccc(B(O)O)cc2)=NO1 [Compound 164],100 to 1000
11,OB(O)c1ccc(C2=NOC(c3cccnc3)C2)cc1 (centres unmarked) [Compound 165],10 to 100
12,OB(O)c1ccc(-c2cc(-c3cccnc3)on2)cc1 [Compound 166],≤ 10
13,CCCC1CC(c2ccccc2B(O)O)=NO1 (centres unmarked) [Compound 167],10 to 100
14,CCCc1cc(-c2ccccc2B(O)O)no1 [Compound 168],> 1000
15,OB(O)c1ccc([C@H]2OC[C@H](c3ccccc3)CO2)cc1F [Compound 173],≤ 10
16,OB(O)c1ccc([C@H]2OC[C@@H](c3ccccc3)CO2)cc1F [Compound 174],≤ 10
17,OB(O)c1ccc([C@H]2OC[C@H](c3ccccc3)CO2)cc1 [Compound 175],≤ 10
18,OB(O)c1ccc([C@H]2OC[C@H](c3ccccc3)O2)cc1 [Compound 179],≤ 10
19,OB(O)c1ccc([C@@H]2OC[C@H](c3ccccc3)O2)cc1 [Compound 180],≤ 10

row,SMILES,Ki [nM]
1,OB(O)c1ccc([C@@H]2OC[C@@H](c3ccccc3)O2)cc1 [Compound 181],≤ 10
2,OB(O)c1ccc([C@H]2OC[C@@H](c3ccccc3)O2)cc1 [Compound 182],≤ 10
3,CC/C=C/c1cc(OCCc2ccccc2)ccc1B(O)O [Compound 183],10 to 100
4,OB(O)c1ccc(OCCc2ccccc2)cc1/C=C/CCc1ccccc1 [Compound 184],100 to 1000
5,OB(O)c1ccc2nc(OC3CCCC3)ccc2c1 [Compound 190],≤ 10
6,OB(O)c1ccc2nc(OC3CCCCC3)ccc2c1 [Compound 192],10 to 100
7,OB(O)c1ccc2nc(N3CCCc4ccccc43)ccc2c1 [Compound 207],10 to 100
8,Cc1cc(Oc2ccccc2)nc2c(C)cc(B(O)O)cc12 [Compound 212],10 to 100
9,OB(O)c1ccc2cn(Cc3ccccc3)nc2c1 [Compound 217],≤ 10
10,OB(O)c1ccc(-c2cccc(-c3ccccc3)c2)cc1 [Compound 219],10 to 100
11,CC(C)Cn1cc(B(O)O)cn1 [Compound 220],100 to 1000
12,CC(C)CCn1cc(-c2ccc(B(O)O)cc2)cn1 [Compound 222],≤ 10
13,Cc1nc(-c2ccccc2)sc1-c1ccc(B(O)O)c(F)c1 [Compound 225],10 to 100
14,OB(O)c1ccc(-c2cnn(Cc3ccccc3)c2)cc1F [Compound 226],≤ 10
15,OB(O)c1ccc(-c2cnn(Cc3ccccc3)c2)cc1 [Compound 227],≤ 10
16,OB(O)c1ccc(-c2cccc3ncccc23)cc1F [Compound 229],10 to 100
17,OB(O)c1ccc(-c2cccc3[nH]ccc23)cc1F [Compound 230],10 to 100
18,OB(O)c1ccc(-n2cc(-c3ccccc3)cn2)cc1 [Compound 231],≤ 10
19,OB(O)c1ccc(-c2cnn(-c3ccccc3)c2)cc1 [Compound 232],≤ 10

# Other lines, results leading:
row,Ki [nM],SMILES
1,≤ 10,OB(O)c1ccc2cc(Oc3ccccn3)ccc2c1 [Compound 185]
2,≤ 10,OB(O)c1ccc2cc(Oc3cnccn3)ccc2c1 [Compound 186]
3,≤ 10,OB(O)c1ccc2nc(Oc3ccccc3)ccc2c1 [Compound 187]
4,≤ 10,OB(O)c1ccc2ccc(Oc3ccccc3)nc2c1 [Compound 188]
5,≤ 10,COc1cccc(Oc2ccc3cc(B(O)O)ccc3n2)c1 [Compound 189]
6,≤ 10,CCCCOc1ccc2cc(B(O)O)ccc2n1 [Compound 191]
7,≤ 10,OB(O)c1ccc2nc(OCc3ccccc3)ccc2c1 [Compound 193]
8,≤ 10,CN(C)c1cccc(Oc2ccc3cc(B(O)O)ccc3n2)c1 [Compound 194]
9,≤ 10,O=[N+]([O-])c1cccc(Oc2ccc3cc(B(O)O)ccc3n2)c1 [Compound 195]
10,≤ 10,OB(O)c1ccc2nc(Oc3ccccc3Cl)ccc2c1 [Compound 196]
11,≤ 10,OB(O)c1ccc2nc(Oc3cccc(Cl)c3)ccc2c1 [Compound 197]
12,≤ 10,N#Cc1cccc(Oc2ccc3cc(B(O)O)ccc3n2)c1 [Compound 198]
13,≤ 10,OB(O)c1ccc2nc(Oc3ccccc3O)ccc2c1 [Compound 199]
14,≤ 10,COc1ccccc1Oc1ccc2cc(B(O)O)ccc2n1 [Compound 200]
15,≤ 10,OB(O)c1ccc2nc(Oc3ccc(Cl)cc3)ccc2c1 [Compound 201]
16,10 to 100,COc1ccc2cc(B(O)O)ccc2n1 [Compound 202]
17,10 to 100,CCOc1ccc2cc(B(O)O)ccc2n1 [Compound 203]
18,≤ 10,CN(Cc1ccccc1)c1ccc2cc(B(O)O)ccc2n1 [Compound 204]
19,10 to 100,CN(c1ccccc1)c1ccc2cc(B(O)O)ccc2n1 [Compound 205]
20,≤ 10,OB(O)c1ccc2nc(Nc3ccccc3)ccc2c1 [Compound 206]
21,≤ 10,OB(O)c1ccc2cc(Oc3ncccn3)ccc2c1 [Compound 208]
22,≤ 10,OB(O)c1ccc2nc(Oc3cccnc3)ccc2c1 [Compound 209]
23,≤ 10,Cc1cc2cc(B(O)O)ccc2nc1Oc1ccccc1 [Compound 210]
24,10 to 100,OB(O)c1ccc2nc(Oc3ccccc3)cnc2c1 [Compound 211]
25,≤ 10,Cc1cc(Oc2ccccc2)nc2ccc(B(O)O)cc12 [Compound 213]
26,≤ 10,OB(O)c1ccc2nc(Oc3ccccc3)sc2c1 [Compound 214]
27,≤ 10,OB(O)c1ccc2nc(Oc3ccccn3)ccc2c1 [Compound 215]
28,≤ 10,OB(O)c1ccc2cc(Oc3ccccc3)ccc2c1 [Compound 216]
29,10 to 100,OB(O)c1ccc2nc(COc3ccccc3)ccc2c1 [Compound 221]
30,10 to 100,COc1ccc2cc(-c3ccc(B(O)O)cc3)ccc2c1 [Compound 228]
